Our source for the EC50 values is patent US10189838B2, “Aza-oxo-indoles for the treatment and prophylaxis of respiratory syncytial virus infection” (Hoffmann-La Roche Inc., priority 2013, dated 2019).

The subject of the first assay is RSV Long strain. Nature of the assay: Viral cytopathic effect (CPE) assay, RSV Long strain. The class given is cell-based, Respiratory Syncytial Virus. The following applies: cell viability after 6 days (Cell Counting kit-8). Summed up: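 Cells in DMEM with 10% FBS infected next day with RSV Long (A subtype) at a dose giving ~80–90% CPE after 6 days, alongside half-log compound dilutions. Viability at day 6 by CCK-8, absorbance 450 nm referenced to 630 nm; EC50 is concentration giving 50% of maximal protection.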
Regarding `N=C(N)NCCn1c(CN2C(=O)C3(CC3)c3ccncc32)cc2cc(Cl)ccc21` [Example 28], a half-maximal effect (EC50) was put at 64 nM.

Staying with this assay, now noted: human respiratory syncytial virus, 144 h, cell viability after 6 days (Cell Counting kit-8).
Consider `CS(=O)(=O)CCCn1c(CN2C(=O)C3(CC3)c3cccnc32)cc2cc(Cl)ccc21` [Example 22-2, 1′-({5-Chloro-1-[3-(methylsulfonyl)propyl]-1H-indol-2-yl}methyl)spiro[cyclopropane-1,3′-pyrrolo[2,3-b]pyridin]-2′(1′H)-one], for which the EC50 turned out to be 88 nM.
As to `CS(=O)(=O)CCCn1c(CN2C(=O)C3(CC3)c3ccncc32)cc2cc(Cl)ccc21` [Example 22-3, 1′-({5-Chloro-1-[3-(methylsulfonyl)propyl]-1H-indol-2-yl}methyl)spiro[cyclopropane-1,3′-pyrrolo[2,3-c]pyridin]-2′(1′H)-one], the EC50 was 3 nM.
As for `CCS(=O)(=O)CCCn1c(CN2C(=O)C3(CC3)c3ccncc32)cc2cc(Cl)cnc21` [Example 23, 1′-({5-Chloro-1-[3-(ethylsulfonyl)propyl]-1H-pyrrolo[2,3-b]pyridin-2-yl}methyl)spiro[cyclopropane-1,3′-pyrrolo[2,3-c]pyridin]-2′(1′H)-one], the midpoint of the response, the EC50, lay at 63 nM.
Same read-out and setting: next, `O=C1N(Cc2cc3cc(Cl)ccc3n2CCN2CCNCC2)c2cnccc2C12CC2` [Example 24-1, 1′-({5-Chloro-1-[2-(piperazin-1-yl)ethyl]-1H-indol-2-yl}methyl)spiro[cyclopropane-1,3′-pyrrolo[2,3-c]pyridin]-2′(1′H)-one]: 68 nM; `O=C1N(Cc2cc3cc(Cl)ccc3n2CCCS(=O)(=O)N2CCNCC2)c2cnccc2C12CC2` [Example 24-2, 1′-({5-Chloro-1-[3-(piperazin-1-ylsulfonyl)propyl]-1H-indol-2-yl}methyl)spiro[cyclopropane-1,3′-pyrrolo[2,3-c]pyridin]-2′(1′H)-one]: 15 nM.
Same read-out and setting: next, `O=C1N(Cc2cc3cc(Cl)ccc3n2CCCS(=O)(=O)N2C[C@H]3C[C@@H]2CN3)c2cnccc2C12CC2` [Example 24-3, 1′-[(5-Chloro-1-{3-[(1R,4R)-2,5-diazabicyclo[2.2.1]hept-2-ylsulfonyl]propyl}-1H-indol-2-yl)methyl]spiro[cyclopropane-1,3′-pyrrolo[2,3-c]pyridin]-2′(1′H)-one]: 19 nM; `O=C1CNCCN1CCCn1c(CN2C(=O)C3(CC3)c3ccncc32)cc2cc(Cl)ccc21` [Example 24-4, 1′-({5-Chloro-1-[3-(2-oxopiperazin-1-yl)propyl]-1H-indol-2-yl}methyl)spiro[cyclopropane-1,3′-pyrrolo[2,3-c]pyridin]-2′(1′H)-one]: 30 nM.
`NCCn1c(CN2C(=O)C3(CC3)c3ccncc32)cc2cc(Cl)ccc21` [Example 24-5, 1′-{[1-(2-Aminoethyl)-5-chloro-1H-indol-2-yl]methyl}spiro[cyclopropane-1,3′-pyrrolo[2,3-c]pyridin]-2′(1′H)-one] came in with an EC50 of 64 nM.
As to `CNS(=O)(=O)CCCn1c(CN2C(=O)C3(CC3)c3ccncc32)cc2cc(Cl)cnc21` [Example 25-1, 3-{5-Chloro-2-[(2′-oxospiro[cyclopropane-1,3′-pyrrolo[2,3-c]pyridin]-1′(2′H)-yl)methyl]-1H-pyrrolo[2,3-b]pyridin-1-yl}-N-methylpropane-1-sulfonamide], the EC50 was determined as 57 nM.
On the same count and under the same terms, next, `CNS(=O)(=O)CCCn1c(CN2C(=O)C3(CC3)c3ccncc32)cc2cc(Cl)ccc21` [Example 25-2, 3-{5-Chloro-2-[(2′-oxospiro[cyclopropane-1,3′-pyrrolo[2,3-c]pyridin]-1′(2′H)-yl)methyl]-1H-indol-1-yl}-N-methylpropane-1-sulfonamide]: 11 nM.
Take `NS(=O)(=O)CCCn1c(CN2C(=O)C3(CC3)c3ccncc32)cc2cc(Cl)cnc21` [Example 25-3, 3-{5-Chloro-2-[(2′-oxospiro[cyclopropane-1,3′-pyrrolo[2,3-c]pyridin]-1′(2′H)-yl)methyl]-1H-pyrrolo[2,3-b]pyridin-1-yl}propane-1-sulfonamide]: the EC50 stood at 41 nM.
Take `CC(=O)N1CCN(CCn2c(CN3C(=O)C4(CC4)c4ccncc43)cc3cc(Cl)ccc32)CC1` [Example 26-1, 1′-({1-[2-(4-Acetylpiperazin-1-yl)ethyl]-5-chloro-1H-indol-2-yl}methyl)spiro[cyclopropane-1,3′-pyrrolo[2,3-c]pyridin]-2′(1′H)-one]: it took 25 nM to reach a half-maximal effect (EC50).
Same read-out and setting: the same measure for `CC(=O)NS(=O)(=O)CCCn1c(CN2C(=O)C3(CC3)c3ccncc32)cc2cc(Cl)cnc21` [Example 26-2, N-[(3-{5-Chloro-2-[(2′-oxospiro[cyclopropane-1,3′-pyrrolo[2,3-c]pyridin]-1′(2′H)-yl)methyl]-1H-pyrrolo[2,3-b]pyridin-1-yl}propyl)sulfonyl]acetamide]: 1920 nM; for `CC(=O)NCCn1c(CN2C(=O)C3(CC3)c3ccncc32)cc2cc(Cl)ccc21` [Example 26-3, N-(2-{5-Chloro-2-[(2′-oxospiro[cyclopropane-1,3′-pyrrolo[2,3-c]pyridin]-1′(2′H)-yl)methyl]-1H-indol-1-yl}ethyl)acetamide]: 25 nM; for `CS(=O)(=O)N1CCN(CCn2c(CN3C(=O)C4(CC4)c4ccncc43)cc3cc(Cl)ccc32)CC1` [Example 27-1, 1′-[(5-Chloro-1-{2-[4-(methylsulfonyl)piperazin-1-yl]ethyl}-1H-indol-2-yl)methyl]spiro[cyclopropane-1,3′-pyrrolo[2,3-c]pyridin]-2′(1′H)-one]: 6 nM.
Take `CS(=O)(=O)NCCn1c(CN2C(=O)C3(CC3)c3ccncc32)cc2cc(Cl)ccc21` [Example 27-2, N-(2-{5-Chloro-2-[(2′-oxospiro[cyclopropane-1,3′-pyrrolo[2,3-c]pyridin]-1′(2′H)-yl)methyl]-1H-indol-1-yl}ethyl)methanesulfonamide]: a half-maximal response (EC50) required 11.5 nM.
Take `CS(=O)(=O)NCCCn1c(CN2C(=O)C3(CC3)c3ccncc32)cc2cc(Cl)ccc21` [Example 27-3, N-(3-{5-Chloro-2-[(2′-oxospiro[cyclopropane-1,3′-pyrrolo[2,3-c]pyridin]-1′(2′H)-yl)methyl]-1H-indol-1-yl}propyl)methanesulfonamide]: the midpoint of the response, the EC50, lay at 499 nM.
For the compound `O=C1N(Cc2cc3cc(Cl)ccc3n2CCCNCCO)c2cnccc2C12CC2` [Example 29, 1′-[(5-Chloro-1-{3-[(2-hydroxyethyl)amino]propyl}-1H-indol-2-yl)methyl]spiro[cyclopropane-1,3′-pyrrolo[2,3-c]pyridin]-2′(1′H)-one], the EC50 worked out at 244 nM.
Turning to `COC(=O)NCCCn1c(CN2C(=O)C3(CC3)c3ccncc32)cc2cc(Cl)ccc21` [Example 30, Methyl(3-{5-chloro-2-[(2′-oxospiro[cyclopropane-1,3′-pyrrolo[2,3-c]pyridin]-1′(2′H)-yl)methyl]-1H-indol-1-yl}propyl)carbamate], the EC50 stood at 20 nM.
Still for that read-out and setting: next, `O=C(NCC(F)(F)F)OCCCn1c(CN2C(=O)C3(CC3)c3ccncc32)cc2cc(Cl)ccc21` [Example 31, 3-{5-Chloro-2-[(2′-oxospiro[cyclopropane-1,3′-pyrrolo[2,3-c]pyridin]-1′(2′H)-yl)methyl]-1H-indol-1-yl}propyl(2,2,2-trifluoroethyl)carbamate]: 52 nM.
As to `CCS(=O)(=O)CCc1c(CN2C(=O)C3(CC3)c3cccnc32)[nH]c2cc(Cl)ccc12` [Example 32-1, 1′-({6-Chloro-3-[2-(ethylsulfonyl)ethyl]-1H-indol-2-yl}methyl)spiro[cyclopropane-1,3′-pyrrolo[2,3-b]pyridin]-2′(1′H)-one], the EC50 amounted to 9 nM.
Take `CS(=O)(=O)CCc1c(CN2C(=O)C3(CC3)c3ccncc32)[nH]c2cc(Cl)ccc12` [Example 32-2, 1′-({6-Chloro-3-[2-(methylsulfonyl)ethyl]-1H-indol-2-yl}methyl)spiro[cyclopropane-1,3′-pyrrolo[2,3-c]pyridin]-2′(1′H)-one]: the EC50 worked out at 5 nM.
Same read-out and setting: the same measure for `CS(=O)(=O)CCCc1c(CN2C(=O)C3(CC3)c3ccncc32)[nH]c2cc(Cl)ccc12` [Example 33, 1′-({6-Chloro-3-[3-(methylsulfonyl)propyl]-1H-indol-2-yl}methyl)spiro[cyclopropane-1,3′-pyrrolo[2,3-c]pyridin]-2′(1′H)-one]: 6 nM; for `CS(=O)(=O)CCn1c(CN2C(=O)C3(CC3)c3c(F)cccc32)nc2cc(Cl)ccc21` [Example 34-2, 1′-({5-Chloro-1-[2-(methylsulfonyl)ethyl]-1H-benzimidazol-2-yl}methyl)-4′-fluorospiro[cyclopropane-1,3′-indol]-2′(1′H)-one]: 20 nM; for `CS(=O)(=O)CCn1c(CN2C(=O)C3(CC3)c3c(Cl)cccc32)nc2cc(Cl)ccc21` [Example 34-3, 4′-Chloro-1′-({5-chloro-1-[2-(methylsulfonyl)ethyl]-1H-benzimidazol-2-yl}methyl)spiro[cyclopropane-1,3′-indol]-2′(1′H)-one]: 66 nM.
`CS(=O)(=O)CCn1c(CN2C(=O)C3(CC3)c3c(Br)cccc32)nc2cc(Cl)ccc21` [Example 34-4, 4′-Bromo-1′-({5-chloro-1-[2-(methylsulfonyl)ethyl]-1H-benzimidazol-2-yl}methyl)spiro[cyclopropane-1,3′-indol]-2′(1′H)-one] yielded an EC50 of 205 nM.
For the compound `CCS(=O)(=O)CCn1c(CN2C(=O)C3(CC3)c3ccncc32)nc2cc(Cl)ccc21` [Example 34-5, 1′-({5-Chloro-1-[2-(ethylsulfonyl)ethyl]-1H-benzimidazol-2-yl}methyl)spiro[cyclopropane-1,3′-pyrrolo[2,3-c]pyridin]-2′(1′H)-one], the EC50 is 13 nM.
For the compound `O=C1N(Cc2nc3cc(Cl)ccc3n2CCC2CS(=O)(=O)C2)c2cnccc2C12CC2` [Example 35, 1′-({5-Chloro-1-[2-(1,1-dioxidothietan-3-yl)ethyl]-1H-benzimidazol-2-yl}methyl)spiro[cyclopropane-1,3′-pyrrolo[2,3-c]pyridin]-2′(1′H)-one], the EC50 came to 1.1 nM.

As usually defined, the EC50 is the concentration at which the effect is half-maximal. The low end stands for greater potency, the high end for weaker potency.
